Consider 13 compounds from ChEMBL document CHEMBL1201862, “PubChem BioAssay data set” (2004).

Test systems include HCT-15; HCT-116; COLO 205; HCC 2998; NCI-H226; SNB-19; SK-MEL-28; K562; LOX IMVI; M14; RXF 393; SNB-75; NCI-H460; MOLT-4; OVCAR-4; SF-268; NCI/ADR-RES; MDA-MB-435; PC-3.
Assay in all cases: NCI tumour cell line growth inhibition, 48 h

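Five compound concentrations were applied to cells in 96-well plates for 48 hours; endpoints were derived by simple linear interpolation of the resulting dose-response curve. GI50 = concentration required for 50% inhibition of growth.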 Calls of active or inactive are those of the source. No stated cut-off is given here; in the data, active = GI50 up to about 1.1 µM and inactive = higher.

On to `COC/C=C\COC`, for which the GI50 is above 100 µM with HCT-15; > 100 µM (inactive) with HCT-116; > 100 µM (inactive) with COLO 205; > 100 µM (inactive) with HCC 2998; > 100 µM (inactive) with NCI-H226; > 100 µM (inactive) in the test on SNB-19. Also, the GI50 with SK-MEL-28, with K562, in the test on LOX IMVI, in the test on M14, with RXF 393 and in the test with SNB-75 was > 100 µM (inactive) throughout. For the same compound, the GI50 with NCI-H460, with MOLT-4 and in the test with OVCAR-4 was > 100 µM (inactive) each time.

Take `CCCCCCc1cc(C(=O)Nc2cccc(C(F)(F)F)c2)nc(N)n1`: the GI50 in the test with HCT-15 is above 100 µM; in the test with HCT-116, > 100 µM (inactive); in the test on COLO 205, > 100 µM (inactive); in the test with HCC 2998, > 100 µM (inactive); with NCI-H226, > 100 µM (inactive); in the test with SNB-19 it was > 100 µM (inactive). In addition, the GI50 in the test on SK-MEL-28, in the test on K562, in the test on LOX IMVI, in the test with M14, in the test on RXF 393 and with SF-268 was > 100 µM (inactive) throughout. Also, the GI50 in the test with SNB-75, with NCI-H460, in the test with MOLT-4 and in the test with OVCAR-4 was > 100 µM (inactive) throughout.

For the compound `NCCCN(CCCN)CCCNCc1c2ccccc2c(CNCCCN(CCCN)CCCN)c2ccccc12`, the GI50 with HCT-15 is 14.4 µM; in the test on HCT-116, 14.9 µM (inactive); with COLO 205, 8.09 µM (inactive); in the test on HCC 2998, 4.51 µM (inactive); in the test with NCI-H226 it was 72.1 µM (inactive); in the test with SNB-19, 14.6 µM (inactive). Also, the GI50 is 7.16 µM (inactive) with SK-MEL-28; 9.42 µM (inactive) in the test on K562; 19.1 µM (inactive) in the test with LOX IMVI; 13.6 µM (inactive) in the test with M14; 21.4 µM (inactive) in the test with RXF 393; 18.3 µM (inactive) in the test on SF-268. Besides, the GI50 in the test on SNB-75 was 16.5 µM (inactive); in the test with NCI-H460, 12 µM (inactive); in the test on MOLT-4 it was 26.1 µM (inactive); with OVCAR-4, 17.2 µM (inactive).

As for `C=CCOCn1cnc2c(=O)[nH]c(N)nc21`, the GI50 is > 100 µM (inactive) in the test on NCI/ADR-RES; above 100 µM with HCT-15; > 100 µM (inactive) with MDA-MB-435; > 100 µM (inactive) in the test on HCT-116; > 100 µM (inactive) in the test on COLO 205; > 100 µM (inactive) with HCC 2998. For the same compound, the GI50 in the test with NCI-H226, in the test on SNB-19, in the test with SK-MEL-28, in the test on PC-3, in the test with K562 and with LOX IMVI was > 100 µM (inactive) in each case. Further, the GI50 with M14, with SF-268, in the test on SNB-75, in the test on NCI-H460, with MOLT-4 and in the test with OVCAR-4 was > 100 µM (inactive) throughout.

In the case of `CC(C)C1=Cc2ccc3c(c2C(=O)C1=O)CCCC3`, the GI50 was 21.4 µM (inactive) with NCI/ADR-RES; 3.08 µM in the test with HCT-15; 0.865 µM (active) in the test on MDA-MB-435; 1.95 µM (inactive) in the test on HCT-116; 11.4 µM (inactive) in the test with COLO 205; 17.1 µM (inactive) with HCC 2998. In addition, the GI50 in the test on NCI-H226 is 15 µM (inactive); in the test on SNB-19, 17.9 µM (inactive); in the test with SK-MEL-28 it was 7.5 µM (inactive); with PC-3 it was 13.8 µM (inactive); in the test on K562 it was 2.44 µM (inactive); with LOX IMVI it was 10.4 µM (inactive). The GI50 is 5.11 µM (inactive) in the test on M14; 4.32 µM (inactive) with RXF 393; 7.11 µM (inactive) in the test with SF-268; 2.05 µM (inactive) in the test with SNB-75; 10.6 µM (inactive) in the test with NCI-H460; 0.78 µM (active) in the test with MOLT-4. Moreover, the GI50 in the test with OVCAR-4 was 1.51 µM (inactive).

Take `COc1c2c(cc3nc4ccccc4nc13)CCC(C(C)(C)O)C2` (stereo unspecified): the GI50 was above 100 µM with HCT-15; > 100 µM (inactive) in the test on HCT-116; 69 µM (inactive) in the test on COLO 205; > 100 µM (inactive) with HCC 2998; > 100 µM (inactive) with NCI-H226; > 100 µM (inactive) with SNB-19. In addition, the GI50 with SK-MEL-28 is > 100 µM (inactive); in the test on K562, 73.8 µM (inactive); with LOX IMVI, > 100 µM (inactive); in the test with M14, > 100 µM (inactive); in the test on RXF 393, > 100 µM (inactive); in the test with SF-268, > 100 µM (inactive). Also, the GI50 in the test with SNB-75 is > 100 µM (inactive); in the test on NCI-H460 it was > 100 µM (inactive); in the test on MOLT-4, 32.4 µM (inactive); with OVCAR-4, > 100 µM (inactive).

In the case of `N#CC1=C(c2ccccc2)C(O)(c2ccccc2)NC1=O` (stereo unspecified), the GI50 is above 100 µM in the test on HCT-15; > 100 µM (inactive) in the test with HCT-116; > 100 µM (inactive) in the test with COLO 205; > 100 µM (inactive) with HCC 2998; 51.5 µM (inactive) in the test on NCI-H226; > 100 µM (inactive) with SK-MEL-28. Also, the GI50 with K562 is > 100 µM (inactive); in the test with LOX IMVI, > 100 µM (inactive); in the test with M14 it was 52.4 µM (inactive); in the test with RXF 393, > 100 µM (inactive); in the test with SF-268 it was > 100 µM (inactive); in the test on SNB-75 it was > 100 µM (inactive). The GI50 in the test on NCI-H460 is 58.3 µM (inactive); in the test with MOLT-4, > 100 µM (inactive); in the test on OVCAR-4, > 100 µM (inactive).

Consider `COC(=O)C1=C(c2ccc3c(c2)OCO3)OC(c2ccc3c(c2)OCO3)C1` (stereo unspecified), for which the GI50 in the test on HCT-15 is above 100 µM; in the test on HCT-116, > 100 µM (inactive); in the test on COLO 205, 66.1 µM (inactive); in the test with HCC 2998 it was > 100 µM (inactive); in the test with NCI-H226 it was > 100 µM (inactive); in the test on SK-MEL-28, > 100 µM (inactive). For the same compound, the GI50 was > 100 µM (inactive) in the test on K562; 28.3 µM (inactive) in the test with LOX IMVI; > 100 µM (inactive) with M14; 68.5 µM (inactive) in the test on RXF 393; > 100 µM (inactive) in the test on SF-268; > 100 µM (inactive) in the test on SNB-75. Moreover, the results for the GI50 with NCI-H460, with MOLT-4 and in the test on OVCAR-4 were > 100 µM (inactive), 16.9 µM (inactive) and > 100 µM (inactive), respectively.

Consider `c1ccc2c(c1)C1CCCCCC21N1CCOCC1` (stereo unspecified), for which the GI50 in the test on HCT-15 is 52 µM; in the test on HCT-116, 54.2 µM (inactive); with COLO 205 it was > 100 µM (inactive); in the test on HCC 2998, > 100 µM (inactive); in the test with NCI-H226 it was 92.9 µM (inactive); in the test with SNB-19, 29.7 µM (inactive). The GI50 in the test with SK-MEL-28 was > 100 µM (inactive); in the test on K562, 45.1 µM (inactive); with LOX IMVI, > 100 µM (inactive); in the test on M14, 98.2 µM (inactive); with RXF 393, > 100 µM (inactive); in the test on SF-268, > 100 µM (inactive). The GI50 with SNB-75 was 34.8 µM (inactive); in the test with NCI-H460, 69 µM (inactive); in the test on MOLT-4, 32.6 µM (inactive); in the test with OVCAR-4, 91 µM (inactive).

`C/C(=N\O)c1sc(-n2nc(-c3ccccc3)cc2-c2ccccc2)nc1C`: the GI50 in the test with HCT-15 is 13.9 µM; in the test on HCT-116, 12.6 µM (inactive); in the test with COLO 205, > 10 µM (inactive); in the test with HCC 2998, 13.6 µM (inactive); in the test on NCI-H226, 12.3 µM (inactive); in the test on SNB-19, 12.2 µM (inactive). Besides, the GI50 in the test on SK-MEL-28 was 12.9 µM (inactive); with K562 it was 12.6 µM (inactive); in the test on LOX IMVI it was 12.4 µM (inactive); in the test on M14, 13.2 µM (inactive); in the test with RXF 393, > 10 µM (inactive); with SF-268, 12.1 µM (inactive). Also, the GI50 in the test on SNB-75 is 14.6 µM (inactive); with NCI-H460, 15.6 µM (inactive); in the test with MOLT-4 it was 11.1 µM (inactive); with OVCAR-4, > 10 µM (inactive).

In the case of `Cn1c(=O)nc2n(-c3cc(C(F)(F)F)cc(C(F)(F)F)c3)c3ccccc3nc-2c1=O`, the GI50 in the test with HCT-15 was above 100 µM; with HCT-116 it was > 100 µM (inactive); in the test on COLO 205, > 100 µM (inactive); in the test on HCC 2998 it was > 100 µM (inactive); in the test on NCI-H226 it was > 100 µM (inactive); in the test on SNB-19 it was 49 µM (inactive). For the same compound, the GI50 was > 100 µM (inactive) in the test on SK-MEL-28; > 100 µM (inactive) in the test with K562; > 100 µM (inactive) with LOX IMVI; > 100 µM (inactive) with M14; 75.7 µM (inactive) in the test with RXF 393; > 100 µM (inactive) with SF-268. The GI50 with SNB-75 was 18.8 µM (inactive); with NCI-H460, > 100 µM (inactive); in the test with MOLT-4, > 100 µM (inactive); in the test on OVCAR-4, 40.3 µM (inactive).

Take `COc1c(Cl)c2c(c(OC)c1OC)-c1ccc(OC)c(=O)c(Cl)c1C(NC(C)=O)CC2` (stereo unspecified): the GI50 with HCT-15 is 0.356 µM; in the test with HCT-116, 0.125 µM (active); in the test with COLO 205, 0.194 µM (active); with HCC 2998, 0.182 µM (active); with NCI-H226 it was 0.316 µM (active); in the test with SNB-19, 1.43 µM (inactive). Moreover, the GI50 was 0.288 µM (active) in the test on SK-MEL-28; 0.139 µM (active) with K562; 0.296 µM (active) with LOX IMVI; 0.244 µM (active) in the test with M14; 0.0382 µM (active) with RXF 393; 0.212 µM (active) in the test with SF-268. The GI50 is 0.1 µM (active) in the test on SNB-75, 0.134 µM (active) with NCI-H460, 0.345 µM (active) in the test with MOLT-4 and 27.1 µM (inactive) in the test on OVCAR-4.

Turning to `N/N=C(\N)Nc1cccc2ccccc12`, the GI50 is > 100 µM (inactive) with NCI/ADR-RES; above 100 µM with HCT-15; > 100 µM (inactive) with MDA-MB-435; > 100 µM (inactive) in the test on HCT-116; > 100 µM (inactive) in the test on COLO 205; > 100 µM (inactive) in the test with HCC 2998. Besides, the GI50 in the test with NCI-H226, in the test with SNB-19, in the test with SK-MEL-28, in the test with K562, in the test with M14 and with RXF 393 was > 100 µM (inactive) throughout. For the same compound, the GI50 in the test on SF-268, in the test on SNB-75, in the test on NCI-H460, in the test on MOLT-4 and in the test on OVCAR-4 was > 100 µM (inactive) each time.
